Peptide text beside a SMILES is read from it.
How the values were obtained:
[1] = system: Bacillus subtilis ATCC 62037; assay: MIC, microdilution in 96-well plate; assay type: cell-based; conditions: overnight 37° C., 3% TSB
Source text: (§1) All of the microorganisms used in the invention were obtained from the American Type Culture Collection (ATCC) Used were Bacillus subtilis ATCC 62037, Staphylococcus aureus ATCC 15752, Streptococcus mutans ATCC 25175, Pseudomonas putida ATCC 17426, Escherichia coli ATCC 27325, Salmonella typhimurium ATCC 15277, Seratia sp. ATCC 21074, Cryptococcus neoformans ATCC 34881, Saccharomyces cerevisiae ATCC 44774 and Candida albicans ATCC 10231.
(§2) The parasin I and its derivatives obtained in Example I were lyophilized, resuspended in water and assayed for antimicrobial activity against B. subtilis ATCC 62037. The purity of the isolated peptides was analyzed by reverse-phase HPLC and MALDI-MS (Kratos Kompact MALDI, England). The antimicrobial activity of the samples was determined during each purification step by the radial diffusion assay using B. subtilis ATCC 62037 according to the method of Lehrer et al. ((1991) J. Immunol. Methods, 137, 167-173). A 20 ml culture of B. subtilis ATCC 62037 cell in mid-logarithmic phase was washed with 10 mM sodium phosphate buffer (NAPB), pH 7.4, at […], and resuspended in 10 ml of the same buffer. A cell suspension containing 1×10^6 bacterial colony forming units (CFUs) was added to 6 ml of an underlayer agar (10 mM sodium phosphate, 1% (v/v) trypticase soy broth (TSB), 1% (w/v) agarose, pH 6.5) and this resulting mixture was poured into a Petri dish. Samples were added, at an amount of 5 μl, directly in 3-mm wells which were made on the solidified underlayer agar. After incubation for 3 hours at 37° C., the underlayer agar was covered with a nutrient-rich top agar overlay (6% (w/v) TSB, 1% (w/v) agarose) and incubated overnight at 37° C. Antimicrobial activity was determined by observing the zone of suppression of bacterial growth around the 3-mm wells. The minimal inhibitory concentrations (MICs) of the isolated peptide against the microorganisms were determined as described by Moore et al. ((1991) J. Biol. Chem., 266, 19851-19857). 100 μl microorganism suspensions (10^5 CFU/ml) in 3% (w/v) TSB were mixed with serial two-fold dilutions of the isolated peptide in a sterilized 96-well microtiter plate (Nunc, Denmark). The final concentration of the peptide ranged 0.5-200 μg/ml. The 96-well plate was incubated overnight at 37° C. and the inhibition of growth was determined by measuring the absorbance at 620 nm on a microplate reader, such as that sold by B10-Rad, U.S.A., under the brand name of Model 550. The MIC was defined as the lowest concentration of peptide that inhibited growth. In respect to the test for antimicrobial activity, 10 different microorganisms, including Gram-negative bacteria, Gram-positive bacteria and fungi were used.

[2] = system: Candida albicans ATCC 10231; assay: MIC, microdilution in 96-well plate; assay type: cell-based; conditions: overnight 37° C., 3% TSB
Source text: as §1, §2

[3] = system: Cryptococcus neoformans ATCC 34881; assay: MIC, microdilution in 96-well plate; assay type: cell-based; conditions: overnight 37° C., 3% TSB
Source text: as §1, §2

[4] = system: Escherichia coli ATCC 27325; assay: MIC, microdilution in 96-well plate; assay type: cell-based; conditions: overnight 37° C., 3% TSB
Source text: as §1, §2

[5] = system: Pseudomonas putida ATCC 17426; assay: MIC, microdilution in 96-well plate; assay type: cell-based; conditions: overnight 37° C., 3% TSB
Source text: as §1, §2

[6] = system: Saccharomyces cerevisiae ATCC 44774; assay: MIC, microdilution in 96-well plate; assay type: cell-based; conditions: overnight 37° C., 3% TSB
Source text: as §1, §2

[7] = system: Salmonella typhimurium ATCC 15277; assay: MIC, microdilution in 96-well plate; assay type: cell-based; conditions: overnight 37° C., 3% TSB
Source text: as §1, §2

[8] = system: Serratia sp.; assay: MIC, microdilution in 96-well plate; assay type: cell-based; conditions: overnight 37° C., 3% TSB
Source text: as §1, §2

[9] = system: Staphylococcus aureus ATCC 15752; assay: MIC, microdilution in 96-well plate; assay type: cell-based; conditions: overnight 37° C., 3% TSB
Source text: as §1, §2

[10] = system: Streptococcus mutans ATCC 25175; assay: MIC, microdilution in 96-well plate; assay type: cell-based; conditions: overnight 37° C., 3% TSB
Source text: as §1, §2

[11] = system: human erythrocytes; assay: Hemolytic activity assay; conditions: peptide 200 μg/ml
Protocol: The hemolytic activity of the antimicrobial peptide was assayed as described by Park et al. (9).

| Compound | MIC [1] | MIC [2] | MIC [3] | MIC [4] | MIC [5] | MIC [6] | MIC [7] | MIC [8] | MIC [9] | MIC [10] | hemolysis [11] |
| --- | --- | --- | --- | --- | --- | --- | --- | --- | --- | --- | --- |
| K G R G K Q G G K V R A K A K T R S S (KGRGKQGGKVRAKAKTRSS) [Seq. No. 1] | 0.5 µg/mL | 1 µg/mL | 1 µg/mL | 0.5 µg/mL | 2 µg/mL | 1 µg/mL | 1 µg/mL | 4 µg/mL | 1 µg/mL | 0.5 µg/mL |  |
| CC(C)[C@H](NC(=O)[C@H](CCCCN)NC(=O)CNC(=O)CNC(=O)[C@H](CCC(N)=O)NC(=O)[C@H](CCCCN)NC(=O)CNC(=O)[C@H](CCCNC(=N)N)NC(=O)CNC(=O)[C@@H](N)CCCCN)C(=O)N[C@@H](CCCNC(=N)N)C(=O)N[C@@H](C)C(=O)N[C@@H](CCCCN)C(=O)N[C@@H](C)C(=O)N[C@@H](CCCCN)C(=O)N[C@H](C(=O)N[C@@H](CCCNC(=N)N)C(=O)N[C@@H](CO)C(=O)N[C@@H](CO)C(=O)O)[C@@H](C)O [Parasin I, Lys-Gly-Arg-Gly-Lys-Gln-Gly-Gly-Lys-Val-Arg-Ala-Lys-Ala-Lys-Thr-Arg-Ser-Ser] (H-KGRGKQGGKVRAKAKTRSS-OH) |  |  |  |  |  |  |  |  |  |  | 0.2% |
| Magainin 2 [reference compound] | 50 µg/mL | 25 µg/mL | 12 µg/mL | 100 µg/mL | 50 µg/mL | 25 µg/mL | 25 µg/mL | 50 µg/mL | 50 µg/mL | 100 µg/mL |  |
| Buforin I [reference compound] | 4 µg/mL | 4 µg/mL | 4 µg/mL | 8 µg/mL | 4 µg/mL | 4 µg/mL | 4 µg/mL | 8 µg/mL | 4 µg/mL | 8 µg/mL |  |
| K G R G K Q G G K V R A K A K T R (KGRGKQGGKVRAKAKTR) [Seq. No. 2, synthetic derivative deficient of 2 carboxyl terminal residues of parasin I] | 0.5 µg/mL | 1 µg/mL | 1 µg/mL | 0.5 µg/mL | 2 µg/mL | 2 µg/mL | 1 µg/mL | 2 µg/mL | 1 µg/mL | 0.5 µg/mL |  |
| K G R G K Q G G K V R A K A K (KGRGKQGGKVRAKAK) [Seq. No. 3, synthetic derivative deficient of 4 carboxyl terminal residues of parasin I] | 1 µg/mL | 4 µg/mL | 2 µg/mL | 1 µg/mL | 2 µg/mL | 2 µg/mL | 2 µg/mL | 4 µg/mL | 2 µg/mL | 1 µg/mL |  |
